According to patent US20220332782A1, “Combined Artificial Cell Death/Reporter System Polypeptide for Chimeric Antigen Receptor Cell and Uses Thereof” (Century Therapeutics, Inc., priority 2021, published 2022):

How the values were obtained:
Format in all cases: cell-based
[1] = tested on: iPSCs expressing the HSV-TK-PSMA fusion; assay: ganciclovir killing of iPSCs transfected with HSV-TK-PSMA fusion (p1499), cell confluency by imaging; details: 1 μM ganciclovir
Procedure: (§1) The ability to induce cell death in cells expressing the HSV-TK-PSMA fusion or HSV-TK alone was next tested. […] The resulting plasmid (p1474; shown in FIG. 4) was sequenced and grown up for purification using the Qiagen maxi-prep kit. Next, iPSCs were transfected with the p1499 or p1474 plasmids. Transfected and untransfected cells were plated into 6 well dishes (2×10^5 cells/well) and treated with and without 1 μM ganciclovir and imaged at 24 and 48 hours to monitor cell growth. […] It will be appreciated by those skilled in the art that changes could be made to the embodiments described above without departing from the broad inventive concept thereof. It is understood, therefore, that this invention is not limited to the particular embodiments disclosed, but it is intended to cover modifications within the spirit and scope of the present invention as defined by the present description.

[2] = tested on: iPSCs expressing HSV-TK alone; assay: ganciclovir killing of iPSCs transfected with HSV-TK alone (p1474), cell confluency by imaging; details: 1 μM ganciclovir, 24 and 48 hours
Procedure: as §1

[3] = tested on: untransfected iPSCs; assay: ganciclovir treatment of untransfected iPSCs (WT control), cell confluency by imaging; details: 1 μM ganciclovir
Procedure: as §1

[4] = tested on: HSV-TK (A168H)-T2A-PSMA engineered iPSCs; assay: ganciclovir killing of HSV-TK (A168H)-T2A-PSMA engineered iPSCs, visual inspection; details: 1 uM ganciclovir, 60 hours
Text: (§2) FIGS. 6A-6B show results from cells transfected with a HSV-TK […]-T2A-PSMA transgene.

[5] = tested on: wild-type (WT; un-engineered) iPSCs; assay: ganciclovir treatment of wild-type (un-engineered) iPSCs, visual inspection; details: increasing concentrations of ganciclovir, 60 hours
Text: as §2

Nc1nc(O)c2ncn(COC(CO)CO)c2n1 [ganciclovir]
confluency compared with untreated cells ([1]; 24 and 48 hours): reduced confluency
cell confluency ([1]; 48 hours, iPSCs expressing HSV-TK-PSMA): 6%
confluency compared with untreated cells [2]: reduced confluency
effect on cell growth ([3]; 24 hours and 48 hours): no effect
cell confluency ([3]; 48 hours, WT cells): 73%
killing [4]: ~100%
effect on un-engineered cells [5]: unaffected
